Laboratory results from the METLIN SMRT retention time set (Domingo-Almenara et al. 2019).

Test: gradient 5% acetonitrile 3 min, to 50% in 2 min, to 85% in 15 min, held 3 min, 100 µL/min
Conditions: column: Zorbax Extend-C18 2.1 x 50 mm; eluents: water / acetonitrile, 0.1% formic acid
Method in brief: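 Retention times of pure standards were taken from adduct peaks that were selected by computer and manually inspected. Over 3 months, mixtures of ~100 molecules were run by HPLC–quadrupole time-of-flight mass spectrometry in positive and negative ionization mode. The Zorbax Extend-C18 column (2.1 × 50 mm, 1.8 μm) ran at 100 μL/min in water and acetonitrile, each containing 0.1% formic acid, with 40 μL dead volume and 900 μL dwell volume.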

Row | RP-LC retention time | SMILES
1 | 676 s | Cc1oc(-c2[nH]ncc2C(=O)N2CCCC2)cc1S(=O)(=O)Nc1ccccc1F
2 | 1100 s | O=C(Cn1cccc1-c1nc(-c2ccc3c(c2)OCO3)no1)Nc1ccccc1Cl
3 | 1060 s | COc1ccccc1NC(=O)c1sc(-c2cn(C)c3ncccc23)nc1C
4 | 755 s | O=C(c1ccccc1[N+](=O)[O-])N1c2nc(-c3ccccc3)nn2C2(CCCCC2)[C@@H]2CCCC[C@@H]21
5 | 615 s | O=C(Cn1nc(-c2ccco2)ccc1=O)N1CCN(c2ncccn2)CC1
6 | 736 s | Cn1c(N2CCCC(C(=O)NCCCc3ccccc3)C2)cc(=O)n(C)c1=O (stereo not drawn)
7 | 589 s | O=c1cc(-c2ccccc2)nc2n1CCN2Cc1ccncc1
8 | 764 s | Cc1ccc(OCC(=O)N2C[C@@H]3C[C@H]2C[C@@H]3NS(=O)(=O)c2ccccc2)cc1
9 | 832 s | CCc1ccc(C2=C(C)C(N3CCCN(C(=O)c4ccoc4)CC3)=NS2(=O)=O)cc1
10 | 580 s | Cc1cc(N2CCOCC2)nc(Nc2ccc(NC(=O)C(C)Oc3ccccc3)cc2)n1 (stereo not drawn)
11 | 628 s | Cc1oc2c(c1C(=O)Nc1ccccc1Br)C1=NCCN1C=N2
12 | 608 s | Cc1ccnc(NS(=O)(=O)c2ccc(NC(=O)c3nc(-c4cnccn4)no3)cc2)n1
13 | 734 s | O=C(Cn1c(=O)n(CCc2ccccc2)c(=O)c2ncccc21)Nc1ccc2c(c1)OCO2
14 | 584 s | Cn1c(=O)c2cc(C(=O)NCCc3ccncc3)nn2c2ccccc21
15 | 968 s | Cc1cc(N2CCCC2)n2nc(-c3ccc(C(C)(C)C)cc3)nc2n1
16 | 885 s | CC1=C(c2ccc(C)cc2)S(=O)(=O)N=C1N1CCCN(C(=O)c2cccc(C#N)c2)CC1
17 | 702 s | O=C(CSc1ncc(CO)n1Cc1ccc(F)cc1)N1CCCc2ccccc21
18 | 808 s | CCc1ccc(NC(=O)N2CCC3(CC2)NC(=O)c2ccccc2N3C)cc1
19 | 1230 s | CCCCN(CC)S(=O)(=O)c1ccc(C(=O)Nc2nc3c(s2)Cc2ccccc2-3)cc1
20 | 884 s | CCOc1ccc(NC(=O)c2nc(C)oc2C)cc1
21 | 852 s | Cc1csc(-c2ccc(N3CCN(C(=O)c4cc5ccccc5[nH]4)CC3)nc2)n1

Row | RP-LC retention time | SMILES
22 | 765 s | O=C(NCCc1ccccc1)N1CCN(c2ncccc2-c2nnc(C3CC3)o2)CC1
23 | 723 s | Cn1ccc2c(cc(C(=O)N3CCN(c4ccccc4F)CC3)n2C)c1=O
24 | 641 s | CC(=O)Nc1ccc(C(=O)N2CCN(c3cc(-c4cccs4)[nH]n3)CC2)cc1
25 | 1290 s | COC(=O)c1ccc(COc2cc(O)c3c(=O)cc(-c4ccccc4)oc3c2)cc1
26 | 640 s | CCCn1cnc2cc(CNC(=O)CCc3ccccc3)ccc21
27 | 1140 s | O=C(c1cccc(Cl)c1)N1CCc2nc(-c3ccc(Cl)cc3)ncc2C1
28 | 510 s | CNC(=O)[C@@H]1C[C@H](Oc2cccnc2)CN1C(=O)c1ccc2ncccc2c1
29 | 748 s | COc1ccc(N2CCN(c3cc(SCC(=O)NCc4ccco4)ncn3)CC2)cc1
30 | 715 s | CN(C)C(=O)CN1C(=O)COc2ccc(C(=O)N3CCN(c4ccc(F)cc4)CC3)cc21
31 | 846 s | Cc1ccccc1Cn1nc2c(S(=O)(=O)N3CCCC3)cccn2c1=O
32 | 710 s | Cn1c(CN(c2ccc(F)cc2)S(C)(=O)=O)nnc1SCc1nnc(-c2ccccc2)o1
33 | 1250 s | CC(C)CN(CC(C)C)c1nc(-c2ccc([N+](=O)[O-])cc2)nc2ccccc12
34 | 703 s | CCN1c2ccccc2C(=O)NC12CCN(C(=O)Nc1cccc(OC)c1)CC2
35 | 743 s | O=C(Cc1ccsc1)N1CCOc2ccc(N3CCOCC3)cc2C1
36 | 1040 s | COC(=O)c1ccc2c(=O)n(-c3cccc(Cl)c3)c(N3CCCC3)nc2c1
37 | 723 s | COc1cccc(NC(=O)C2CCN(Cc3cnn(-c4ccccc4)c3-n3cccc3)CC2)c1
38 | 686 s | Cc1ccc(NC(=O)N2CCC(c3cc(N)on3)CC2)cc1
39 | 1040 s | Cc1ccccc1-c1noc(Cc2nnc(-c3ccc(F)cc3)o2)n1
40 | 822 s | O=C(c1ccc(F)cc1)N1CCC(C(=O)N2CCc3ccccc32)CC1
41 | 826 s | COc1ccc(NC(=O)N2CCCC2c2nc(-c3ccccc3OC)no2)cc1 (stereo not drawn)

More lines, now with the values behind:

Row | SMILES | RP-LC retention time
42 | COc1cccc(Cn2nc3ccc(S(=O)(=O)N4CCCCCC4)cn3c2=O)c1 | 946 s
43 | CCn1c(=O)sc2cc(S(=O)(=O)N3CCC(C(=O)Nc4nc(C)cs4)CC3)ccc21 | 827 s
44 | Cn1c(N2CCCC(C(=O)NCCC3=CCCCC3)C2)cc(=O)n(C)c1=O (stereo not drawn) | 754 s
45 | COCCCNC(=O)C1CCCN(S(=O)(=O)c2ccc(OC)c(C)c2)C1 (stereo not drawn) | 768 s
46 | O=C(O)c1cc2cccc([N+](=O)[O-])c2[nH]1 | 746 s
47 | Cn1cnc2cc(CNC(=O)c3ccc(F)cc3)ccc21 | 577 s
48 | Cc1c(C(=O)NCc2c(F)cccc2F)c(C(F)(F)F)nn1C(C)C | 867 s
49 | CCn1ccc(C(=O)N2CC(n3ccnc3C(C)C)C2)n1 | 566 s
50 | COCCN(Cc1ccc(Cl)cc1)Cc1cc(=O)n2ccccc2n1 | 635 s
51 | O=c1c2cc(-c3ccc(Cl)cc3)nn2ccn1Cc1nc(-c2ccccn2)no1 | 894 s
52 | CCn1cc(C(=O)NCC2CC2)c(S(=O)(=O)N2CCSCC2)n1 | 817 s
53 | CN(c1nccn2c(=O)n(CC(=O)Nc3ccc4c(c3)OCO4)nc12)C1CCCCC1 | 716 s
54 | CCCN1C(=O)COc2ccc(-c3csc(NC(=O)C(C)(C)C)n3)cc21 | 1010 s
55 | CCC(C)NC(=O)c1cn(-c2ccc(-c3nc(C(C)C)no3)cn2)cn1 (stereo not drawn) | 899 s
56 | Cc1cc(C)c(NS(=O)(=O)c2cc(-c3nc(C)c(C)s3)sc2C)c(C)c1 | 1260 s
57 | CS(=O)(=O)N(CC(=O)NCc1ccc2c(c1)OCCCO2)Cc1ccc(Cl)cc1 | 889 s
58 | CCN1CCN(CCCNC(=O)c2c(-c3ccc(Br)s3)noc2C)CC1 | 594 s
59 | O=C(COc1ccc(Cl)cc1)Nc1nnc(SCC(=O)NC2CCCC2)s1 | 798 s
60 | COc1ccc(C2C(=O)N(C3CCCCC3)CC(=O)N2Cc2ccc3c(c2)OCO3)cc1OC (stereo not drawn) | 894 s
61 | N#CCSC1=NS(=O)(=O)c2cc(F)ccc2N1 | 622 s
62 | CN1CCc2nnc(C3CCCN3C(=O)Nc3cc(Cl)cc(Cl)c3)n2CC1 (stereo not drawn) | 566 s
63 | CCCNC(=O)C1CCCN(c2nc3ncn(CC(=O)Nc4ccc(F)cc4F)c(=O)c3s2)C1 (stereo not drawn) | 684 s
64 | COc1ccc(C)cc1NC(=O)C1CCN(S(=O)(=O)c2ccc3c(c2)NC(=O)C(C)O3)CC1 (stereo not drawn) | 788 s
65 | Cn1c(=O)oc2cc(-c3noc(-c4ccc(C(C)(C)C)cc4)n3)ccc21 | 1310 s

Row | SMILES | RP-LC retention time
66 | CCCC1c2nccn2CCCN1C(=O)c1cc(C2CC2)[nH]n1 (stereo not drawn) | 596 s
67 | CN1c2ccc(F)cc2C(=O)NC12CCN(C(=O)c1ccc3c(c1)OCO3)CC2 | 724 s
68 | COCCN(CC(=O)N1CCc2sccc2C1COc1ccccc1F)C(=O)C(C)C (stereo not drawn) | 912 s
69 | O=C(c1csc(S(=O)(=O)N2CCC(C(=O)N3CCOCC3)CC2)c1)N1CCCCCC1 | 718 s
70 | O=C(NCC(O)C1CCCCC1)c1ccsc1 (stereo not drawn) | 689 s
71 | CCN(CC)CCNC(=O)C1CCN(c2ccc(-c3cccs3)nn2)CC1 | 556 s
72 | Cc1nc(-c2csc(S(=O)(=O)N3CCC(C(=O)N4CCCC4)CC3)c2)no1 | 760 s
73 | C=CCN1C(=O)COc2ccc(-c3nc(NC(=O)C4CCCCC4)sc3C)cc21 | 1080 s
74 | COC[C@H]1NC(=O)CC[C@H]1C(=O)Nc1ccc2c(c1)OCCO2 | 632 s
75 | CCCOc1ccc(Br)cc1-c1cc(-c2ccc(Cl)cc2)[nH]c1-c1ccncc1 | 1040 s
76 | Cc1nc2cc3c(cc2n1CC(=O)NCc1ccc2c(c1)OCCCO2)OCCO3 | 615 s
77 | NC(=O)[C@H](Cc1ccccc1)NC(=O)[C@H](Cc1c[nH]c2ccccc12)NC(=O)[C@@H]1CCCN1C(=O)[C@@H](N)Cc1ccc(O)cc1 | 680 s
78 | Cc1cccc(CNC(=O)C2(C)Oc3cccnc3NC2=O)c1 (stereo not drawn) | 704 s
79 | O=C(NCCc1csc(C2CCN(C(=O)C3CCCC3)CC2)n1)C1CC1 | 690 s
80 | COc1ccc2c(c1)C1(CCN(C(=O)c3ccc(Cl)cc3)C1)C(=O)N2C (stereo not drawn) | 832 s
81 | O=P1(N(CCCl)CCCl)NCCCO1 (stereo not drawn) | 724 s
82 | Cn1c(=O)sc2cc(S(=O)(=O)N3CCC(C(=O)NCc4ccc(F)cc4)CC3)ccc21 | 818 s
83 | CCc1nnc(NC(=O)c2c[nH]c3c(Cl)cccc3c2=O)s1 | 693 s
84 | O=C(COc1ncccn1)N1CCN(c2ncccn2)CC1 | 579 s
85 | O=C(c1ccccc1)c1ccccc1C(=O)c1ccccc1 | 1090 s
86 | Cc1ccc(-c2cc(=O)n(CC(=O)Nc3nccs3)cn2)cc1 | 691 s
87 | Cc1ccc(-c2cc3c(=O)n(Cc4noc(CN5CCCCC5C)n4)ccn3n2)cc1C (stereo not drawn) | 730 s
88 | CCOC(=O)C(=O)N1CCN(c2ncnc3c2nnn3C)CC1 | 643 s
